Experimental data as given in US20220324862A1, “PYRIDOPYRIMIDINONE COMPOUNDS” (Acerand Therapeutics (USA) Limited, priority 2021, published 2022).

Experiments:
NCI-H1975 cells = test: 3D cell proliferation assay; type: cell-based; settings: Homo sapiens, ultra low attachment plate, 96 hours, 3D CTG
Protocol: This assay supports the molecular mode of action of compounds. Low IC50 values are indicative of high potency of the SOS1 inhibition. […] This supports the molecular mode of action of the SOS1 inhibitors as selectively targeting cancer cells dependent on receptor tyrosine kinase-RAS/SOS1-family protein function. Cell proliferation assays were performed in three-dimensional (3D) anchorage-independent conditions in 96 well ultra-low attachment plate with the following human cell lines:
NCI-H1975: human non-small cell lung cancer (NSCLC) with wild type KRAS and EGFR L858R/T790M mutation;
Cell lines were purchased from the American Type Culture Collection (ATCC), NCI, or European Collection of Authenticated Cell Cultures (ECACC). All cell lines were maintained in RPMI-1640 or DMEM with 10% heat inactivated fetal bovine serum.
Cells growing in log phase were detached with Gibco™ TrypLE™ Express Enzyme and plated in 96 well ultra low attachment plate at 15000 to 20000 cells/well in 100 μl of media. After overnight incubation at 37° C. and 5% CO2, the cells were treated with compounds (50 μL/well) at the final concentrations spanning 1 nM to 20 μM. Cells were incubated at 37° C., 5% CO2 and 95% humidity incubator for 96 hours. At the end of incubation, a 3D CTG reagent from Promega was added to each well according to vendors recommendation and mixed for 10 minutes in dark. The luminescence signals were determined using Biotek plate reader. The data was fitted using a sigmoidal curve analysis program (GraphPAD Prism) with variable hill slope.

[1] = test system: cellular pERK in NCI-H1975 cells (EGFR/L858R-T790M); test: pERK Potency Assay; type: cell-based; settings: Homo sapiens, 1 hour incubation, Western blot, read-out: IC50 value, cellular pERK level
From the text: The purpose of this assay is to measure the ability of test compounds to inhibit SOS1 function in cells. SOS1 activates RAS proteins by catalyzing the conversion of RAS-GDP to RAS-GTP in response to receptor tyrosine kinase activation. Activation of RAS induces a sequence of cellular signaling events that results in increased phosphorylation of ERK at Threonine 202 and Tyrosine 204 (pERK). The procedure described below measured the level of cellular pERK in response to test compounds in NCI-H1975 cells (EGFR/L858R-T790M).
NCI-H1975 cells were grown and maintained using media and procedures recommended by the ATCC. On the day prior to compound addition, cells were plated in 24-well cell culture plates (0.9 ml/well) and grown overnight in a 37° C., 5% CO2 incubator. Test compounds were prepared with 3-fold serial dilutions in DMSO, with a top concentration of 10 mM. On the day of the assay, 100 uL of each test compound diluted at 1:100 in media was added to each well of cell culture plate with final concentrations of the compound spanning 0.5 nM to 10 uM. After the compound was added, the cells were incubated for 1 hour at 37° C., 5% CO2. Following incubation, culture medium was removed, and the cells were washed once with phosphate buffered saline and lysed with lysis buffer (20 mM Tris-HCl, pH 7.5, 150 mM NaCl, 1 mM EDTA, 1 mM EGTA, 0.8% NP-40 plus 2× protease and phosphatase inhibitors). Cellular pERK level was determined using the Western blot analysis and quantified with Liqor software. Signal from Western blot was plotted and IC50 values were determined by fitting a 4-parameter sigmoidal concentration response model.

IC50 (NCI-H1975 cells): < 100 nM
IC50 [1]: < 100 nM
SMILES: C#C[C@@H](Nc1nc(C)nc2cc(=O)n(C3(C)CCN(C(C)=O)CC3)cc12)c1cccc(C(F)(F)F)c1C [Compound 33, (R)-6-(1-acetyl-4-methylpiperidin-4-yl)-2-methyl-4-((1-(2-methyl-3-(trifluoromethyl)phenyl)prop-2-yn-1-yl)amino)pyrido[4,3-d]pyrimidin-7(6H)-one]
